The results in this text go back to article PMC2910156 (Journal of neurochemistry, 2010).

The test concerns the target α-synuclein (E46K α-syn) (Homo sapiens, UniProt P37840, E46K). Kind of test: Thioflavin T fibrillization assay with purified E46K α-syn. The test is classed as biochemical.

The term IC50 denotes the concentration that gives 50% inhibition. A lower IC50 goes with greater potency.

For `O=c1cc(-c2ccccc2)oc2cc(O)c(O)c(O)c12` [Baicalein], the half-maximal inhibitory concentration (IC50) is ~10 µM.
